Columns and labels:
[1] = Evaluation of the cuticular region of hair fibers by scanning electron microscopy (SEM); conditions: conditioner plus 1% active; bleached and dyed fibers; 1100x
Method: The tests to evaluate the effectiveness of the shine on locks of hair were carried out with standardized fibers of straight, dark brown hair, provided by International Hair Importers— USA.
The locks were washed with anti-residue shampoo and dried naturally (24±1h).
After the pre-treatment, the locks of hair from the groups G1, G2, G3 and G4 (average weight of 2 g per lock), were subjected to the process of chemical bleaching.
To carry out the process, a bleaching mixture was prepared with 15 g of bleaching powder and 30 g of hydrogen peroxide 30 volumes. This mixture was evenly applied to the locks of hair. After application, the locks were wrapped in aluminum foil and left to rest for 45 minutes. After the time of action of the bleaching mixture, the locks were washed and rinsed abundantly with running water (2 minutes) and received the application of a standard conditioner. After 2 minutes of rest, for the conditioner to work, the locks were rinsed again. The locks were dried with hot air from the dryer.
The whole process was repeated two more times, totaling three bleachings. […]
The evaluation of the surface of the hair fibers (cuticle region) was performed using a scanning electron microscope (SEM), model 6460 LV (JEOL). The study is based on capturing images (1100× magnification) of 10 capillary fibers randomly selected from the evaluated groups. […]

[2] = Shine evaluation of hair locks treated with conditioner (SAMBA Hair System, Reich-Robbins luster)
Method: The tests for evaluating the effectiveness in the shine of locks of hair were carried out with standardized fibers of CaucasianU, brown, straight hair, supplied by International Hair Importers— USA, model most used for these types of tests (Table 1).
The locks were washed with anti-residue shampoo and dried naturally (24±1h) before treatment.
The formulations were applied according to the protocol described below: For the locks in group G1 (Control), shampoo was applied in a standardized amount of SLES solution (8.1% active) on wet hair and gently massaged for 1 minute. Then rinsed for 1 minute.
For locks in group G2 (Placebo) and with the actives: G3 (Ricinoleamide), G4 (Cyclometicone), G5 (Phenyltrimethicone), G6 (Dimethicone), G7 (Aminopropyl phenyltrimethicone) and G8 (Propylene glycol dibenzoate) and G9 (Ricinoleate mono- and diesters), shampoo was applied in a standardized amount of placebo/standard shampoo to wet hair and gently massaged for 1 minute. Then rinsed for 1 minute. After rinsing the hair, the conditioner (3.0±0.2 g) was applied to the entire length of the hair, massaging and untangling the hair. Leaving the product to act for 2 minutes and it was rinsed for 1 minute. This protocol was repeated once, and then four more times, for all groups according to their specific treatment, described in Table 1.
The locks were kept in a controlled environment at 23±2° C. and 50±5% relative humidity (R. H.), for at least 24 hours before the tests were started. The entire test period was carried out under the same environmental conditions.
The evaluation of hair shine was performed on three locks per group, using the equipment SAMBA Hair System of the company Bossa Nova Technologies, USA.
The locks of hair were positioned on a cylindrical support that slides into the interior of the equipment, in order to carry out the measurements.
The equipment successively captures two parallel images of the locks of hair. Specular image and diffuse image. The specular image is formed only by the light reflected by the hair surfaces (first and second) of reflection. This image contains the brightness information. The diffused image (diffuse) is formed only by the scattered light coming from inside the hair.
The SAMBA system program calculates parameters associated with the reflection and refraction of light, the most used parameter is Luster, which evaluates the real state and quality of the brightness of the object under study. This parameter can be calculated simultaneously through different formulas, and for this study the analysis data obtained by the Reich-Robbins formula was used.
For the statistical evaluation of the tests, analysis of variance (ANOVA) was used. Tukey's test was applied when analysis of variance detected significant differences between the groups. For comparative tests between before and after the same sample, the t-Test (Student) was used.

| Compound | integrity of the cuticular region (subjective SEM evaluation) vs Control and Placebo [1] | difference of shine value greater than Amino pfenyltrimethicone group ([2]; conditioner with 1% active, one treatment, vs Amino pfenyltrimethicone (1%)) [%] | difference of shine value (after minus before one treatment) greater than Control group ([2]; conditioner with 1% active, one treatment, vs Control (SLES wash)) [%] | difference of shine value greater than Cyclomethicone group ([2]; conditioner with 1% active, one treatment, vs Cyclomethicone (1%)) [%] | difference of shine value greater than Dimethicone group ([2]; conditioner with 1% active, one treatment, vs Dimethicone (1%)) [%] | difference of shine value greater than Phenyltrimethicone group ([2]; conditioner with 1% active, one treatment, vs Phenyltrimethicone (1%)) [%] | difference of shine value greater than Placebo group ([2]; conditioner with 1% active, one treatment, vs Placebo conditioner) [%] | difference of shine value greater than Propilene glycol dibenzoate group ([2]; conditioner with 1% active, one treatment, vs Propilene glycol dibenzoate (1%)) [%] | difference of shine value greater than ricinoleate mono- and diesters group ([2]; conditioner with 1% active, one treatment, vs ricinoleate mono- and diesters (1%)) [%] | efficiency in providing increased shine in the first application compared to other compounds ([2]; same concentrations, FIG. 1) |
| --- | --- | --- | --- | --- | --- | --- | --- | --- | --- | --- |
| CCCCCC[C@@H](O)C/C=C\CCCCCCCC(N)=O [Ricinoleamide, ricinoleamide] | greater preservation of the cuticular region | 93.4 | 78.4 | 78.4 | 52.7 | 56.7 | 84 | 95.1 | 54.0 | greater efficiency |
| phenyltrimethicone [reference compound] | preservation of the cuticular region | – | – | – | – | – | – | – | – | – |
